Results from patent US8119362B2, “Method of screening for compounds that can be used for the treatment of respiratory conditions” (Centre National de la Recherche Scientifique—Cnrs, priority 2007, dated 2012).

Target: T1, human TASK-2 channel (Homo sapiens, UniProt O95279)
T1 construct: expressed in transfected cells; host or cells: HEK cells (Human Embryonic Kidney cells)
T1 sequence (O95279 1-499): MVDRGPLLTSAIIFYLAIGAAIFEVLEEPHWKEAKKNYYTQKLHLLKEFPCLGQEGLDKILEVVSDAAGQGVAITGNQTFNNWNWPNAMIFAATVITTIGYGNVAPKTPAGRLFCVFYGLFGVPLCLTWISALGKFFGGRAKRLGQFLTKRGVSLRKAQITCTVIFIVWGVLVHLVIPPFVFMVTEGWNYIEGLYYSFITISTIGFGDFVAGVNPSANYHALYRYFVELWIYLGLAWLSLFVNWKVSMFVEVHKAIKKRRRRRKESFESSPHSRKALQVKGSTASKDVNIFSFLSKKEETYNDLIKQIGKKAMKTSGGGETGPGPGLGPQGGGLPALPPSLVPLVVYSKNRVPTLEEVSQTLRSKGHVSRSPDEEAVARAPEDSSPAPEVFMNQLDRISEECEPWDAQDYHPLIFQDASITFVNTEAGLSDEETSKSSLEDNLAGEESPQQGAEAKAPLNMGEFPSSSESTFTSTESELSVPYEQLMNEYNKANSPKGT
Experiment: Patch-clamp (whole cell) recording of TASK-2 current in transfected HEK cells
Format: cell-based
Details: Doxapram at 0.9 mM in the external bath; HEK cells transfected with human TASK-2 (pIRES-CD8-hTASK2); voltage jumps; FIG. 4
Description: The following screening is used. HEK cells (Human Embryonic Kidney cells) are transfected with a plasmid containing complementary DNA from the gene of the human TASK-2 channel (pIRES-CD8-hTASK2) by the lipofectamine method. After 24 hours of culture, the TASK-2 currents are recorded using the voltage-clamp method (patch-clamp in whole cell configuration). The currents are activated by jumps in voltage from a rest potential at […] to variable values ranging from −80 to +45 mV.
The currents are recorded in whole cell configuration using an EPC-10 amplifier (HEKA). The <> pipette contains a solution of 95 K-gluconate, 30 mM KCl, 4.8 mM Na2HPO4, 1.2 mM NaH2PO4, 5 mM glucose, 2.38 mM MgCl2, 0.726 mM CaCl2, 1 mM EGTA, 3 mM ATP, pH 7.2. The external solution is a RINGER solution: 145 mM NaCl, 0.4 mM KH2PO4, 1.6 mM K2HPO4, 5 mM glucose, 1 mM MgCl2, 1.3 mM CaCl2, 5 mM HEPES, pH 7.4.
Different drugs may be applied at different concentrations by perfusion of the external bath and their effects are evaluated by the change in the currents compared with the control conditions.

CCN1CC(CCN2CCOCC2)C(c2ccccc2)(c2ccccc2)C1=O (stereo not shown) [Doxapram]
reduction of the TASK-2 current: 25%
